Data from PubChem BioAssay AID248 (DTP/NCI, 2004).
Where “and” joins values, the source holds several entries; their conditions need not be identical. Equal entries are not always repeated. Inconclusive results and toxic doses are left out. Rule as the data show it: active = T/C of 150% or more; inactive = T/C below 125%.

Test system: L1210 leukemia ip in BDF1 mice, survival T/C
Experiment: NCI In Vivo Anticancer Drug Screen. Data for tumor model L1210 Leukemia (intraperitoneal) in B6D2F1 (BDF1) mice
Conditions: endpoint: mean survival time, higher = longer survival
Method in brief: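 Transplantable tumor model; survival measured in treated vs vehicle control mice. Value = treated/control.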

[1] = dose: 50.0 mg/kg/injection, schedule: Q01DX009 (ip), vehicle: Klucel (hydroxypropylcellulose) (HPC)
[2] = dose: 50.0 mg/kg/injection, schedule: Q04DX003 (ip), vehicle: Klucel (hydroxypropylcellulose) (HPC)
[3] = dose: 100.0 mg/kg/injection, schedule: Q01DX009 (ip), vehicle: Klucel (hydroxypropylcellulose) (HPC)
[4] = dose: 100.0 mg/kg/injection, schedule: Q04DX003 (ip), vehicle: Klucel (hydroxypropylcellulose) (HPC)
[5] = dose: 200.0 mg/kg/injection, schedule: Q04DX003 (ip), vehicle: Klucel (hydroxypropylcellulose) (HPC)
[6] = dose: 400.0 mg/kg/injection, schedule: Q04DX003 (ip), vehicle: Klucel (hydroxypropylcellulose) (HPC)
[7] = dose: 200.0 mg/kg/injection, schedule: Q01DX009 (ip), vehicle: Klucel (hydroxypropylcellulose) (HPC)
[8] = dose: 100.0 mg/kg/injection, schedule: Q04DX002 (ip), vehicle: Klucel (hydroxypropylcellulose) (HPC)
[9] = dose: 200.0 mg/kg/injection, schedule: Q04DX002 (ip), vehicle: Klucel (hydroxypropylcellulose) (HPC)
[10] = dose: 100.0 mg/kg/injection, schedule: Q04DX003 (ip), vehicle: saline
[11] = dose: 100.0 mg/kg/injection, schedule: Q01DX009 (ip), vehicle: saline
[12] = dose: 200.0 mg/kg/injection, schedule: Q01DX009 (ip), vehicle: saline
[13] = dose: 200.0 mg/kg/injection, schedule: Q04DX003 (ip), vehicle: saline
[14] = dose: 400.0 mg/kg/injection, schedule: Q01DX009 (ip), vehicle: saline
[15] = dose: 400.0 mg/kg/injection, schedule: Q04DX003 (ip), vehicle: saline

Measured: T/C

CN(C)/N=C1\C(=O)Nc2ccccc21
inactive: dose: 25.0 mg/kg/injection, schedule: Q01DX009 (ip), vehicle: Klucel (hydroxypropylcellulose) (HPC) 101 % of control | [1] 117 % of control | [2] 104 % of control | [3] 102 % of control and 103 % of control | [4] 106 % of control | [5] 97 % of control | [6] 103 % of control

CC(=O)OCC(=O)c1cc(OC(C)=O)c(OC(C)=O)c(OC(C)=O)c1
inactive: dose: 100.0 mg/kg/injection, schedule: Q01DX001 (ip), vehicle: saline 91 % of control | dose: 400.0 mg/kg/injection, schedule: Q01DX001 (ip), vehicle: saline 94 % of control

Nc1ncnc(N)c1NC(=O)Cc1ccccc1
inactive: dose: 100.0 mg/kg/injection, schedule: Q01DX001 (ip), vehicle: saline with Tween-80 98 % of control | dose: 200.0 mg/kg/injection, schedule: Q01DX001 (ip), vehicle: saline with Tween-80 97 % of control | dose: 400.0 mg/kg/injection, schedule: Q01DX001 (ip), vehicle: saline with Tween-80 98 % of control

O=C1c2ccccc2C(=O)c2c(Cl)ccc(O)c21
inactive: [3] 98 % of control | [4] 97 % of control | [7] 105 % of control | [5] 97 % of control | dose: 400.0 mg/kg/injection, schedule: Q01DX009 (ip), vehicle: Klucel (hydroxypropylcellulose) (HPC) 101 % of control | [6] 96 % of control

O=C(OC12CCN(CC1)CC2)c1ccccc1
inactive: dose: 9.5 mg/kg/injection, schedule: Q01DX001 (ip), vehicle: saline 95 % of control | dose: 19.0 mg/kg/injection, schedule: Q01DX001 (ip), vehicle: saline 95 % of control

COc1cc(C(=O)N/N=C/N(C)C)cc(OC)c1OC
inactive: dose: 75.0 mg/kg/injection, schedule: Q01DX009 (ip), vehicle: Klucel (hydroxypropylcellulose) (HPC) 109 % of control | [4] 99 % of control | dose: 150.0 mg/kg/injection, schedule: Q01DX009 (ip), vehicle: Klucel (hydroxypropylcellulose) (HPC) 102 % of control | [5] 99 % of control | dose: 300.0 mg/kg/injection, schedule: Q01DX009 (ip), vehicle: Klucel (hydroxypropylcellulose) (HPC) 89 % of control | [6] 100 % of control

C=CCCCCCCCCC(=O)O (tested in a mixture with another compound)
inactive: dose: 10.0 mg/kg/injection, schedule: Q01DX001 (ip), vehicle: carboxymethylcellulose (CMC) 93 % of control | dose: 20.0 mg/kg/injection, schedule: Q01DX001 (ip), vehicle: carboxymethylcellulose (CMC) 104 % of control | dose: 40.0 mg/kg/injection, schedule: Q01DX001 (ip), vehicle: carboxymethylcellulose (CMC) 106 % of control | dose: 80.0 mg/kg/injection, schedule: Q01DX001 (ip), vehicle: carboxymethylcellulose (CMC) 101 % of control | dose: 100.0 mg/kg/injection, schedule: Q01DX001 (ip), vehicle: carboxymethylcellulose (CMC) 97 % of control

O=C(O)Cc1c[nH]c(=O)[nH]c1=O
inactive: dose: 100.0 mg/kg/injection, schedule: Q01DX009 (ip), vehicle: saline with Tween-80 97 % of control | dose: 100.0 mg/kg/injection, schedule: Q04DX003 (ip), vehicle: saline with Tween-80 102 % of control | dose: 200.0 mg/kg/injection, schedule: Q01DX009 (ip), vehicle: saline with Tween-80 103 % of control | dose: 200.0 mg/kg/injection, schedule: Q04DX003 (ip), vehicle: saline with Tween-80 103 % of control | dose: 400.0 mg/kg/injection, schedule: Q01DX009 (ip), vehicle: saline with Tween-80 101 % of control | dose: 400.0 mg/kg/injection, schedule: Q04DX003 (ip), vehicle: saline with Tween-80 92 % of control

O=C(N/N=C\c1ccc(F)cc1)N/N=C/c1ccc(F)cc1
inactive: dose: 100.0 mg/kg/injection, schedule: Q04DX002 (ip), vehicle: saline with Tween-80 93 % of control | dose: 200.0 mg/kg/injection, schedule: Q04DX002 (ip), vehicle: saline with Tween-80 96 % of control | dose: 400.0 mg/kg/injection, schedule: Q04DX002 (ip), vehicle: saline with Tween-80 104 % of control

Nc1ccc(C(=O)N/N=C/c2ccc(Cl)cc2Cl)cc1
inactive: [8] 93 % of control | [9] 93 % of control

C#CCOC(C(=O)OC1CCN(C)CC1)(c1ccccc1)c1ccccc1
inactive: dose: 25.0 mg/kg/injection, schedule: Q04DX003 (ip), vehicle: saline 105 % of control | dose: 50.0 mg/kg/injection, schedule: Q04DX003 (ip), vehicle: saline 105 % of control | [10] 97 % of control and 98 % of control

CCOc1ccn(CC(=O)Nc2nccs2)c(=O)n1
inactive: [11] 100 % of control | [10] 98 % of control | [12] 103 % of control | [13] 96 % of control | [14] 105 % of control | [15] 100 % of control

O=C(Oc1ccc(S(=O)(=O)F)cc1F)c1ccccc1Cl
inactive: [8] 95 % of control | [9] 89 % of control

COc1ccc2c3c([nH]c2c1)-c1ccccc1SC3
inactive: dose: 100.0 mg/kg/injection, schedule: Q04DX003 (ip), vehicle: acetone 101 % of control | dose: 200.0 mg/kg/injection, schedule: Q04DX003 (ip), vehicle: acetone 106 % of control | dose: 400.0 mg/kg/injection, schedule: Q04DX003 (ip), vehicle: acetone 101 % of control

CCN(CC)CCN(CCO)Cc1ccccc1
inactive: dose: 25.0 mg/kg/injection, schedule: Q04DX003 (ip), vehicle: Klucel (hydroxypropylcellulose) (HPC) 98 % of control | [1] 92 % of control | [2] 96 % of control | [3] 100 % of control | [4] 98 % of control and 101 % of control

CCCCCCCCCCCCCCCCCC(=O)N/N=C/c1cc(C(C)(C)C)c(O)c(C(C)(C)C)c1
inactive: dose: 100.0 mg/kg/injection, schedule: Q01DX009 (ip), vehicle: other 90 % of control | dose: 200.0 mg/kg/injection, schedule: Q01DX009 (ip), vehicle: other 88 % of control | dose: 400.0 mg/kg/injection, schedule: Q01DX009 (ip), vehicle: other 96 % of control

CC(C)=C(B1OC(C)(C)C(C)(C)O1)B1OC(C)(C)C(C)(C)O1
inactive: [4] 93 % of control | [5] 95 % of control | [6] 97 % of control

O=C(Nc1ccccc1)Oc1ccc(OC(=O)Nc2ccccc2)c(Cl)c1
inactive: dose: 100.0 mg/kg/injection, schedule: Q04DX002 (ip), vehicle: saline + alcohol 92 % of control | dose: 200.0 mg/kg/injection, schedule: Q04DX002 (ip), vehicle: saline + alcohol 92 % of control

COc1nc(Cl)nc(Cl)n1
inactive: dose: 6.0 mg/kg/injection, schedule: Q01DX Z (ip), vehicle: methylcellulose (MC) 89 % of control

O=C(O)C1C2C=CC(CO)(O2)C1C(=O)O (centres undefined)
inactive: [11] 97 % of control | [10] 97 % of control | [12] 100 % of control | [13] 92 % of control | [14] 96 % of control | [15] 95 % of control

CN(C)C1CCC(/C=C(\C#N)C2CCC([N+](=O)[O-])CC2)CC1 (centres undefined)
inactive: dose: 25.0 mg/kg/injection, schedule: Q04DX002 (ip), vehicle: Klucel (hydroxypropylcellulose) (HPC) 109 % of control | [1] 106 % of control | dose: 50.0 mg/kg/injection, schedule: Q04DX002 (ip), vehicle: Klucel (hydroxypropylcellulose) (HPC) 95 % of control | [3] 106 % of control | [8] 95 % of control | [7] 102 % of control | [9] 95 % of control and 100 % of control | dose: 400.0 mg/kg/injection, schedule: Q04DX002 (ip), vehicle: Klucel (hydroxypropylcellulose) (HPC) 103 % of control
